Measured values from publication PMC11493283, “N^4-Hydroxycytidine/molnupiravir inhibits RNA virus-induced encephalitis by producing less fit mutated viruses” (PLOS Pathogens, 2024).

Assays:
LACV [1] = experiment: LACV encephalitis mouse model, IN inoculation; format: in vivo, C57BL/6 mice
Procedure: (§1) Viral RNA was isolated using the Zymo Direct-zol RNA MiniPrep Kit (Zymo Research) per the manufacturer’s directions. First-strand complementary DNA (cDNA) was generated using iScript Reverse Transcriptase (Bio-Rad). qRT-PCR was performed using PowerUp SYBR Green Master Mix (ThermoFischer) on QuantStudio 6 (Applied Biosystems). Primers used for the reaction were synthesized by Integrated DNA Technologies (IDT) to quantify LACV viral RNA, targeting the M segment of the genome: forward primer 5’-[…]-3’, reverse primer 5’-[…]-3’.
(§2) All animal experiments were performed following the protocols 2019-023-E and 2022-019-E approved by the National Institute of Allergy and Infectious Disease/National Institutes of Health/Rocky Mountain Laboratories Institutional Animal Care and Use Committee. For this study, a mix of male and female C57BL/6 mice at 23 to 25 days old were used. Mice were divided evenly and infected with LACV at either 1 × 10^3 pfu by an IP route or 1 x 10^2 pfu by an IN route. IP-infected mice were started on treatment with MOV at either the date of infection or at 3 dpi; the IN-infected mice were started on treatment on the day of infection. MOV was diluted in 10% polyethylene glycol (PEG), 2.5% Cremophor RH40, and 87.5% sterile water which was used as vehicle control. For oral administration, 300 mg/kg of MOV twice a day was given for up to 10 consecutive days using a straight 24-gauge ball-tip disposable feeding needle (Instech). Mice were examined twice daily for 28–30 days for clinical signs of LACV-induced neurologic disease, which mostly involved limb paralysis, ataxia, or repeated seizures. Mice showing one or more of these clinical symptoms were scored as having clinically significant disease and were subsequently euthanized for tissue removal. Occasionally, LACV-infected mice died from the acute seizures. These mice were also scored as having clinically significant disease and underwent tissue removal when possible.
(§3) Brain tissue and lymph nodes were harvested from mice with clinical symptoms (as described above) or at 5 dpi and stored at -80°C. Half of the sagittal section of the brain tissue was used for plaque assays, and the other half for RNA isolation for qRT-PCR and sequencing. For the plaque assay, brain tissues were homogenized in the presence of DMEM using the Bead Mill 24 (Fisher Scientific) homogenizer at 5,300 rpm for 25 seconds. Homogenized samples were centrifuged at 5000 x g for 10 min. Supernatants were then diluted in DMEM containing 10% FBS to 10^−1 to 10^−7 dilutions and subjected to a plaque assay.

LACV [2] = experiment: LACV encephalitis mouse model, IP inoculation; format: in vivo, C57BL/6 mice
Procedure: as §1, §2, §3
We used a digital scanner to scan the plaque assay plates. Digitized images were imported into FIJI/ImageJ v1.52n, and pixel calibration values were calculated based on the well diameter and corresponding digitized image. To quantify plaque size (surface area), wells with clearly isolated plaques were selected for segmentation and analysis. The image lookup table for each well was inverted followed by binarization prior to analysis, with a minimum area of 0.39 mm^2 to eliminate false positives due to slight variations in crystal violet staining. The measurements were imported into Microsoft Excel for data compilation, and graphed and analyzed using GraphPad Prism v9.3.1. Analysis of plaque size was done only when the plaque assays for different virus samples were done in parallel.

LACV [3] = experiment: MPID-NGS mutation rate of LACV RNA in brain tissue, IP-infected mice; format: in vivo, C57BL/6 mice
Description: (§4) We used a Primer ID (PID) library preparation approach with Illumina MiSeq next-generation sequencing (NGS) to examine the mutagenic effects of these drugs on viral RNA allowing deep coverage of the viral population while maintaining a low method error rate (1 in 10,000 nucleotides). We designed cDNA primers targeting a 372 bp region of the RdRp gene within the L segment (referred as L7 in the study), and included a second amplicon covering a 455 bp portion of the M segment (referred as M4 in the study). Each cDNA primer included a block of random nucleotides (11 bases long) as the Primer ID/unique molecular identifier (UMI). Extracted viral RNA was reversed transcribed using SuperScript III (Thermal Fisher) to make cDNA in a single reaction with the two different cDNA primers. After bead purification, the cDNA was amplified by PCR using a mixture of forward primers and a universal reverse primer, followed by a second round of PCR to incorporate Illumina sequencing adapters and barcodes within the amplicons. After gel purification/extraction of the PCR product (Qiagen MinElute Gel Extraction kit), the extracted libraries were quantified using a Qubit fluorimeter and subjected to Agilent TapeStation analysis. For each sequencing run, 24 quantified libraries were pooled for MiSeq 300 base paired-end sequencing at the UNC High Throughput Sequencing Facility. Primers used for the library prep can be found in S1 Table. The initial Primer ID data were processed using the Illumina bcl2fastq pipeline (version 2.20.0), and then template consensus sequences (TCSs) were constructed using the tcs pipeline version 2.5.1 (https://primer-id.org/). Each type of substitution rate was calculated against the wildtype sequence at the sequenced regions. The sequencing date were submitted to the National Center for Biotechnology Information (NCBI) Sequence Read Archive (SRA), accession number is PRJNA1092655.
All animal experiments were performed following the protocols 2019-023-E and 2022-019-E approved by the National Institute of Allergy and Infectious Disease/National Institutes of Health/Rocky Mountain Laboratories Institutional Animal Care and Use Committee. For this study, a mix of male and female C57BL/6 mice at 23 to 25 days old were used. Mice were divided evenly and infected with LACV at either 1 × 10^3 pfu by an IP route or 1 x 10^2 pfu by an IN route. […] Mice showing one or more of these clinical symptoms were scored as having clinically significant disease and were subsequently euthanized for tissue removal. […] These mice were also scored as having clinically significant disease and underwent tissue removal when possible.

LACV [4] = experiment: MPID-NGS mutation rate of LACV RNA in brain tissue, IN-infected mice; format: in vivo, C57BL/6 mice; details: IN infection
Description: as §4, with “After bead purification, the cDNA was amplified by PCR using a mixture of forward primers and a universal reverse primer, followed by a second round of PCR to incorporate Illumina sequencing adapters and barcodes within the amplicons.” left out, “Primers used for the library prep can be found in S1 Table. The initial Primer ID data were processed using the Illumina bcl2fastq pipeline (version 2.20.0), and then template consensus sequences (TCSs) were constructed using the tcs pipeline version 2.5.1 (https://primer-id.org/).” left out, “PRJNA1092655. […]” for “PRJNA1092655.”

LACV [5] = experiment: MPID-NGS mutation rate of LACV in cell culture; format: cell-based, La Crosse virus; details: Vero cells; RBV, FAV: increase only at 100 μM; NHC also in hNSCs and N2a
Procedure: (§5) Cells were seeded in 24-well plates (1 × 10^5 cells/well) and infected with LACV (0.1 MOI). At 1 hour post infection (hpi), medium was replaced with fresh medium containing 6 different concentrations for each of the drugs. RBV and FAV were tested at concentrations of 1, 3, 10, 30, 100, and 300 μM, while NHC was tested at concentrations of 0.1, 0.3, 1, 3, 10 and 30 μM. DMSO was used as vehicle control. At 24 hpi, the cell supernatant was harvested, centrifuged to eliminate cell debris and stored at −80 °C for sequencing (described below) and plaque assay following the method of Ojha et al. 2021 [32]. Quantified virus titers were plotted to represent antiviral efficacy. The EC50 (50% effective concentration representing a 50% reduction in virus titer) was determined by extrapolating a dose-response curve using GraphPad Prism 8 and 9.
as §4, with “Extracted viral RNA was reversed transcribed using SuperScript III (Thermal Fisher) to make cDNA in a single reaction with the two different cDNA primers. After bead purification, the cDNA was amplified by PCR using a mixture of forward primers and a universal reverse primer, followed by a second round of PCR to incorporate Illumina sequencing adapters and barcodes within the amplicons.” left out, “Primers used for the library prep can be found in S1 Table. The initial Primer ID data were processed using the Illumina bcl2fastq pipeline (version 2.20.0), and then template consensus sequences (TCSs) were constructed using the tcs pipeline version 2.5.1 (https://primer-id.org/).” left out

LACV [6] = experiment: Antiviral efficacy against LACV in Vero cells, virus titer by plaque assay; format: cell-based; details: La Crosse virus, LACV 0.1 MOI, 24 hpi, read-out: EC50 (50% reduction in virus titer)
Procedure: as §5

LACV [7] = experiment: Antiviral efficacy against LACV in hNSCs, virus titer by plaque assay; format: cell-based; details: La Crosse virus, LACV 0.1 MOI, 24 hpi, read-out: EC50 (50% reduction in virus titer)
Procedure: as §5

LACV [8] = experiment: Antiviral efficacy against LACV in N2a cells, virus titer by plaque assay; format: cell-based; details: La Crosse virus, LACV 0.1 MOI, 24 hpi, read-out: EC50 (50% reduction in virus titer)
Procedure: as §5

in vitro = format: cell-based; details: MTT, 24h
Procedure: Method: Cells were seeded in 96-well plates (1-2x10^4 cells/well) after attachment different concentrations of each drug containing fresh media were added to each well, in triplicate. DMSO was used as a control. At 24h post-treatment, MTT assays were carried out according to the manufacturer’s instructions (Invitrogen, ThermoFisher Scientific). The absorbance was measured using the Synergy 4 cell plate reader (BioTek) at 540 nm. This assay was used to estimate the drug-induced cytotoxicity using the following formula: (sample absorbance/DMSO absorbance) × 100%. The CC50 (50% cytotoxic concentration) was determined by extrapolating the dose–response curve.

[9] = day 5, MOV from day 0, IP infection
[10] = oral MOV, started on the day of infection

Compound: CC(C)C(=O)OC[C@H]1O[C@@H](n2ccc(NO)nc2=O)[C@H](O)[C@@H]1O [MOV, molnupiravir]
- mice with clinical signs out of 13 (LACV [1]; MOV 300 mg/kg oral twice daily, IN infection, vehicle 7): 4
- reduction in disease vs vehicle (LACV [1]; MOV oral from day of infection, IN infection): ~50%
- infectious virus titer in the brain vs vehicle (plaque assay) (LACV [1]; clinical mice, IN infection): slightly, but not significantly decreased
- viral RNA in the brain vs vehicle (qRT-PCR) (LACV [1]; clinical mice, IN infection): significantly decreased
- disease reduced by (abstract) (LACV [1]; virus administered intranasally): 23%
- mice survived through 28-30 dpi (LACV [2]; MOV 300 mg/kg oral twice daily, delayed until 3 dpi, LACV 10^3 pfu IP): 15%
- mice survived to 28-30 dpi (LACV [2]; MOV 300 mg/kg oral twice daily, started on the day of infection, LACV 10^3 pfu IP): 31%
- infectious virus titer in brain tissue vs vehicle (plaque assay) (LACV [2]; [9]): significantly decreased
- viral RNA load in brain tissue vs vehicle (qRT-PCR) (LACV [2]; [9]): significantly decreased
- viral RNA load in lymph nodes vs vehicle (qRT-PCR) (LACV [2]; [9]): significantly decreased
- decrease in neurological disease development (LACV [2]; [10]): 31%
- mice survived out of 13 (LACV [2]; [10]): 4
- average plaque size of virus from brain vs virus not exposed to MOV (LACV [2]; virus isolated from brain, IP infection): significantly smaller
- increase in C-to-U transition rate vs vehicle (LACV [3]; brain tissue, IP infection): 9.1 per 10,000 bases
- increase in G-to-A transition rate vs vehicle (LACV [3]; brain tissue, IP infection): 5.2 per 10,000 bases
- increase in total mutation rate of the virus vs vehicle (LACV [3]; brain tissue, IP infection, averaged across amplicons): 2.8 per 10,000 bases
- decrease in viral load in brain tissue per 1 mutation increase per 10,000 nucleotides (LACV [3]; estimate from mutation rate vs LACV copy number): approximately 4.4 fold
- increase in C-to-U mutations vs vehicle (LACV [4]): 4.3 per 10,000 bases
- increase in G-to-A mutations vs vehicle (LACV [4]): 4.3 per 10,000 bases

Compound: NC(=O)c1ncn([C@@H]2O[C@H](CO)[C@@H](O)[C@H]2O)n1 [RBV, ribavirin]
- mutation rate of LACV grown in presence of drug (LACV [5]): did not see a significant increase in mutation rates
- EC50 (LACV [6]): 42.7 µM
- EC50 (LACV [7]): 27.7 µM
- EC50 (LACV [8]): 3.8 µM
- CC50 (in vitro; African green monkey, Vero cells): 1780 µM
- CC50 (in vitro; human, hNSCs): 1260 µM
